This data set relates to CCRIS mutagenicity, Ames/micronucleus/aberration tests. Description: CCRIS mutagenicity studies. Conditions: Test System: AMES SALMONELLA TYPHIMURIUM
[1] abbreviates: Strain/Indicator: TA98, Metabolic Activation: NONE, Method: PREINCUBATION
[2] abbreviates: Strain/Indicator: TA100, Metabolic Activation: NONE, Method: PREINCUBATION
Where [3] appears, read: Strain/Indicator: TA1535, Metabolic Activation: NONE, Method: PREINCUBATION

The source made the active and inactive calls. No rule for the calls is given here.

Drawing on PubChem BioAssay AID1259407 (Chemical Carcinogenesis Research Information System (CCRIS), 2018), this text covers mutagenic call for two compounds.

For `O=C1c2ccccc2C(=O)C1c1ccc2ccccc2n1`, the mutagenic call is “inactive; negative” (Strain/Indicator: TA97, Metabolic Activation: HAMSTER, LIVER, S-9, AROCLOR 1254 (10%), Method: PREINCUBATION); “inactive; negative” (Strain/Indicator: TA97, Metabolic Activation: HAMSTER, LIVER, S-9, AROCLOR 1254 (30%), Method: PREINCUBATION); “inactive; negative” (Strain/Indicator: TA97, Metabolic Activation: NONE, Method: PREINCUBATION); “inactive; negative” (Strain/Indicator: TA97, Metabolic Activation: RAT, LIVER, S-9, AROCLOR 1254 (10%), Method: PREINCUBATION); “inactive; negative” (Strain/Indicator: TA97, Metabolic Activation: RAT, LIVER, S-9, AROCLOR 1254 (30%), Method: PREINCUBATION); “inactive; negative” (Strain/Indicator: TA98, Metabolic Activation: HAMSTER, LIVER, S-9, AROCLOR 1254 (5%), Method: PREINCUBATION). The mutagenic call was “inactive; negative” (Strain/Indicator: TA98, Metabolic Activation: HAMSTER, LIVER, S-9, AROCLOR 1254 (10%), Method: PREINCUBATION); “inactive; negative” (Strain/Indicator: TA98, Metabolic Activation: HAMSTER, LIVER, S-9, AROCLOR 1254 (30%), Method: PREINCUBATION); “inactive; negative” under setting [1]; “inactive; negative” (Strain/Indicator: TA98, Metabolic Activation: RAT, LIVER, S-9, AROCLOR 1254 (5%), Method: PREINCUBATION); “inactive; negative” (Strain/Indicator: TA98, Metabolic Activation: RAT, LIVER, S-9, AROCLOR 1254 (10%), Method: PREINCUBATION); “active; positive” (Strain/Indicator: TA98, Metabolic Activation: RAT, LIVER, S-9, AROCLOR 1254 (30%), Method: PREINCUBATION). Further, the mutagenic call was “inactive; negative” (Strain/Indicator: TA100, Metabolic Activation: HAMSTER, LIVER, S-9, AROCLOR 1254 (10%), Method: PREINCUBATION); “active; positive” (Strain/Indicator: TA100, Metabolic Activation: HAMSTER, LIVER, S-9, AROCLOR 1254 (30%), Method: PREINCUBATION); “inactive; negative” under setting [2]; “inactive; negative” (Strain/Indicator: TA100, Metabolic Activation: RAT, LIVER, S-9, AROCLOR 1254 (5 OR 10%), Method: PREINCUBATION); “active; positive” (Strain/Indicator: TA100, Metabolic Activation: RAT, LIVER, S-9, AROCLOR 1254 (30%), Method: PREINCUBATION); “inactive; negative” (Strain/Indicator: TA1535, Metabolic Activation: HAMSTER, LIVER, S-9, AROCLOR 1254 (10%), Method: PREINCUBATION). Further, the mutagenic call by setting is: (Strain/Indicator: TA1535, Metabolic Activation: HAMSTER, LIVER, S-9, AROCLOR 1254 (30%), Method: PREINCUBATION) “inactive; negative”; under setting [3], “inactive; negative”; (Strain/Indicator: TA1535, Metabolic Activation: RAT, LIVER, S-9, AROCLOR 1254 (10%), Method: PREINCUBATION) “inactive; negative”; (Strain/Indicator: TA1535, Metabolic Activation: RAT, LIVER, S-9, AROCLOR 1254 (30%), Method: PREINCUBATION) “inactive; negative”; (Strain/Indicator: TA1537 R+, Metabolic Activation: NONE, Method: STANDARD PLATE) “active; positive”; (Strain/Indicator: TA1537 R+, Metabolic Activation: RAT, LIVER, S-9, AROCLOR 1254, Method: STANDARD PLATE) “active; positive”. Further, the mutagenic call (Strain/Indicator: TA1538, Metabolic Activation: HAMSTER, LIVER, S-9, AROCLOR 1254 (30%), Method: PREINCUBATION) is “active; positive” and the mutagenic call (Strain/Indicator: TA1538, Metabolic Activation: RAT, LIVER, S-9, AROCLOR 1254 (30%), Method: PREINCUBATION) was “active; positive”.
For the compound `CC(=O)O[C@]1(C(C)=O)CC[C@H]2[C@@H]3C4OC4(Cl)C4=CC(=O)[C@@H]5C[C@@H]5[C@]4(C)[C@H]3CC[C@@]21C` (stereo partly specified), the mutagenic call is “inactive; negative” under setting [1]; “inactive; negative” (Strain/Indicator: TA98, Metabolic Activation: NONE, Method: STANDARD PLATE); “inactive; negative” (Strain/Indicator: TA98, Metabolic Activation: RAT, LIVER, S-9, AROCLOR 1254, Method: PREINCUBATION); “inactive; negative” (Strain/Indicator: TA98, Metabolic Activation: RAT, LIVER, S-9, AROCLOR 1254, Method: STANDARD PLATE); “inactive; negative” under setting [2]; “inactive; negative” (Strain/Indicator: TA100, Metabolic Activation: NONE, Method: STANDARD PLATE). The mutagenic call is “inactive; negative” (Strain/Indicator: TA100, Metabolic Activation: RAT, LIVER, S-9, AROCLOR 1254, Method: PREINCUBATION); “inactive; negative” (Strain/Indicator: TA100, Metabolic Activation: RAT, LIVER, S-9, AROCLOR 1254, Method: STANDARD PLATE); “inactive; negative” under setting [3]; “inactive; negative” (Strain/Indicator: TA1535, Metabolic Activation: NONE, Method: STANDARD PLATE); “inactive; negative” (Strain/Indicator: TA1535, Metabolic Activation: RAT, LIVER, S-9, AROCLOR 1254, Method: PREINCUBATION); “inactive; negative” (Strain/Indicator: TA1535, Metabolic Activation: RAT, LIVER, S-9, AROCLOR 1254, Method: STANDARD PLATE). The mutagenic call runs as follows: (Strain/Indicator: TA1537, Metabolic Activation: NONE, Method: PREINCUBATION) “inactive; negative”; (Strain/Indicator: TA1537, Metabolic Activation: NONE, Method: STANDARD PLATE) “inactive; negative”; (Strain/Indicator: TA1537, Metabolic Activation: RAT, LIVER, S-9, AROCLOR 1254, Method: PREINCUBATION) “inactive; negative”; (Strain/Indicator: TA1537, Metabolic Activation: RAT, LIVER, S-9, AROCLOR 1254, Method: STANDARD PLATE) “inactive; negative”; (Strain/Indicator: TA1538, Metabolic Activation: NONE, Method: PREINCUBATION) “inactive; negative”; (Strain/Indicator: TA1538, Metabolic Activation: NONE, Method: STANDARD PLATE) “inactive; negative”. The mutagenic call is, setting by setting: (Strain/Indicator: TA1538, Metabolic Activation: RAT, LIVER, S-9, AROCLOR 1254, Method: PREINCUBATION) “inactive; negative”; (Strain/Indicator: TA1538, Metabolic Activation: RAT, LIVER, S-9, AROCLOR 1254, Method: STANDARD PLATE) “inactive; negative”.
